Measurements reported in patent US5741811A, “Polythiophene anti-tumor agents” (Purdue Research Foundation, priority 1996, dated 1998).
≈ marks a conversion by molar mass, not a printed value.

How the values were obtained:
[1] = system: NHBE cells (Normal human bronchial epithelial cells); experiment: Selective cytotoxicity, normal cells (cell count); format: cell-based
[2] = system: TBE cells (ras-transformed human bronchial epithelial cells); experiment: Selective cytotoxicity, ras-transformed cells (cell count); format: cell-based
[3] = system: SNB-75 CNS cancer cells; experiment: NCI human tumor cell line panel growth inhibition; format: cell-based
[4] = system: OVCAR-5 ovarian cancer cells; experiment: NCI human tumor cell line panel growth inhibition; format: cell-based
[5] = system: HCT-116 colon cancer cells; experiment: NCI human tumor cell line panel growth inhibition; format: cell-based
[6] = system: TK-10 renal cancer cells; experiment: NCI human tumor cell line panel growth inhibition; format: cell-based
[7] = system: NCI-H226 lung cancer cells; experiment: NCI human tumor cell line panel growth inhibition; format: cell-based
[8] = system: U251 CNS cancer cells; experiment: NCI human tumor cell line panel growth inhibition; format: cell-based
[9] = system: LXPL-529 lung cancer cells; experiment: NCI human tumor cell line panel growth inhibition; format: cell-based
[10] = system: CAKI-1 renal cancer cells; experiment: NCI human tumor cell line panel growth inhibition; format: cell-based; conditions: CAKI-1, renal cancer
[11] = system: RXF-631 renal cancer cells; experiment: NCI human tumor cell line panel growth inhibition; format: cell-based
[12] = system: UACC-257 melanoma cells; experiment: NCI human tumor cell line panel growth inhibition; format: cell-based
[13] = system: UACC-62 melanoma cells; experiment: NCI human tumor cell line panel growth inhibition; format: cell-based
[14] = system: NCI-H460 lung cancer cells; experiment: NCI human tumor cell line panel growth inhibition; format: cell-based
[15] = system: KM20L2 colon cancer cells; experiment: NCI human tumor cell line panel growth inhibition; format: cell-based
[16] = system: A-498 renal cancer cells; experiment: NCI human tumor cell line panel growth inhibition; format: cell-based
[17] = system: IGROV-1 ovarian cancer cells; experiment: NCI human tumor cell line panel growth inhibition; format: cell-based
[18] = system: ras-transformed human bronchial epithelial cells (TBE) tumor; experiment: In vivo antitumor activity, TBE cells implanted in athymic mice; parameters: species or system athymic mice (human tumor cells); conditions: 25 mg/kg i.p., 4.0 × 10^6 cells/mouse; for Number of Animals with Tumor: five mice
Procedure: The experiments were carried out at Purdue University athymic mouse laboratory. Athymic mice were purchased from and maintained at the athymic mouse laboratory under […]. Tumor cells (TBE) were obtained from normal human bronchial epithelial cells transfected with plasmic H1 carrying v-Harvey-ras (H-ras) oncogene via protoplast fusion (G. H. Yoakum, J. F. Lechner, E. W. Gabrielson, B. E. Korba, L. Malan-Shibley, J. C. Willey, M. G. Valerio, A. M. Shamsuddin, B. F. Trump and C. C. Harris, Science 227, 1174, 1985. T. C. K. Chan, C.-j. Chang, N. M. Koonchanok and R.L. Geahlen, Biochem. Biophys. Res. Commun., 193, 1152, 1993. The TBE cells were implanted subcutaneously on day 0 of the experiment. Each test group consists of five mice. The compounds tested were dissolved in a saline solution or a saline solution containing 5% of dimethylsulfoxide and 10% cremphor EL (Sigma Chemical Company, St. Louis, Mo.), and were administered intraperitoneously starting on day 2. The solution was administered every four days for a total of four treatments. Tumor volumes were measured every week. The antitumor activity was measured as % of growth inhibition, which is defined by the percentage of the median tumor volume reduction per week of the treated mice divided by the median tumor volume per week of the controlled mice (Tables 9 and 10).

[19] = system: NCI-H322M lung cancer cells; experiment: NCI human tumor cell line panel growth inhibition; format: cell-based; conditions: Homo sapiens, read-out: Log10 GI50 (converted)
[20] = system: SNB-19 CNS cancer cells; experiment: NCI human tumor cell line panel growth inhibition; format: cell-based; conditions: Homo sapiens, read-out: Log10 GI50 (converted)
[21] = system: RXF-393 renal cancer cells; experiment: NCI human tumor cell line panel growth inhibition; format: cell-based; conditions: Homo sapiens, read-out: Log10 GI50 (converted)
[22] = system: NCI-H23 lung cancer cells; experiment: NCI human tumor cell line panel growth inhibition; format: cell-based; conditions: read-out: Log10 GI50 (converted)
[23] = system: SF-295 CNS cancer cells; experiment: NCI human tumor cell line panel growth inhibition; format: cell-based; conditions: read-out: Log10 GI50 (converted)
[24] = system: HCC-2998 colon cancer cells; experiment: NCI human tumor cell line panel growth inhibition; format: cell-based; conditions: Homo sapiens, read-out: Log10 GI50 (converted)
[25] = system: DLD-1 colon cancer cells; experiment: NCI human tumor cell line panel growth inhibition; format: cell-based; conditions: Homo sapiens, read-out: Log10 GI50 (converted)
[26] = system: COLO-205 colon cancer cells; experiment: NCI human tumor cell line panel growth inhibition; format: cell-based; conditions: Homo sapiens; COLO-205, colon cancer; read-out: Log10 GI50 (converted)
[27] = system: HOP-18 lung cancer cells; experiment: NCI human tumor cell line panel growth inhibition; format: cell-based; conditions: Homo sapiens, read-out: Log10 GI50 (converted)
[28] = Homo sapiens, read-out: Log10 GI50 (converted)

Work on `OCc1ccc(-c2ccc(-c3sccc3CO)s2)s1` [compound 658875] yielded a GI50 [1] of 9.7 µg/mL (≈ 31.4 µM) and a GI50 [2] of 0.002 µg/mL (≈ 0.00648 µM).

With `O=Cc1ccc(-c2ccc(-c3ccc(C=O)s3)s2)s1` [drawing 35] the “Log10 GI50” value [3] was -4.14 M, the “Log10 GI50” value [4] was -4.68 M and the “Log10 GI50” value [5] was -4.74 M. The “Log10 GI50” value [6] was -5.29 M, the “Log10 GI50” value [7] was -5.76 M and the “Log10 GI50” value [8] was -6.09 M. The “Log10 GI50” value [9] was -5.95 M, the “Log10 GI50” value [10] was -5.88 M and the “Log10 GI50” value [11] was -4.03 M. The “Log10 GI50” value [12] was -5.72 M, the “Log10 GI50” value [13] was -6.46 M and the “Log10 GI50” value [14] was -5.62 M. The “Log10 GI50” value [15] was -4.39 M, the “Log10 GI50” value [16] was -5.93 M and the “Log10 GI50” value [17] was -5.15 M.

For `O=Cc1ccc(-c2ccc(-c3ccc(C=O)s3)s2)s1` [compound 637394], the GI50 [1] was 0.2 µg/mL (≈ 0.657 µM) and the GI50 [2] was 0.01 µg/mL (≈ 0.0328 µM).

With `OCc1csc(-c2ccc(-c3ccc(CO)s3)s2)c1` [compound 658878] the GI50 [1] was 8 µg/mL (≈ 25.9 µM) and the GI50 [2] was 0.002 µg/mL (≈ 0.00648 µM).

For `O=Cc1ccc(-c2ccc(-c3cc(CO)cs3)s2)s1` [compound 658879], the GI50 [1] was 6.2 µg/mL (≈ 20.2 µM) and the GI50 [2] was 0.004 µg/mL (≈ 0.0131 µM).

For `O=Cc1ccc(-c2ccc(-c3sccc3C=O)s2)s1` [compound 658877], the GI50 [1] was 0.6 µg/mL (≈ 1.97 µM) and the GI50 [2] was 0.03 µg/mL (≈ 0.0985 µM).

Work on `O=Cc1ccc(-c2ccc(-c3cccs3)s2)s1` [compound 637393] yielded a GI50 [1] of 0.2 µg/mL (≈ 0.724 µM) and a GI50 [2] of 0.03 µg/mL (≈ 0.109 µM).

`OCc1ccc(-c2ccc(-c3ccsc3)s2)s1` [compound 660644] showed a GI50 [1] of 3.6 µg/mL (≈ 12.9 µM) and a GI50 [2] of 0.002 µg/mL (≈ 0.00718 µM).

In the case of `O=Cc1ccc(-c2ccc(-c3ccc(CO)s3)s2)s1` [compound 647455], the “Tumor Volume” value ([18]; week 1) is reported as 0.0 mm^3, the “Number of Animals with Tumor” value ([18]; week 1) is reported as 0 and the “Tumor Volume” value ([18]; week 1.5) is reported as 1.4 mm^3. For the same molecule, the “Number of Animals with Tumor” value ([18]; week 1.5) was 1, the “Tumor Volume” value ([18]; week 2) was 5.2 mm^3 and the “Number of Animals with Tumor” value ([18]; week 2) was 3. The Slope ([18]; week 3) was 2.16 mm^3 /week, the “Tumor Growth Inhibition” value ([18]; week 3) was 57% and the “Tumor Volume” value ([18]; week 3) was 5.8 mm^3. For the same molecule, the “Number of Animals with Tumor” value ([18]; week 3) was 4, the Slope ([18]; week 4) was 1.75 mm^3 /week and the “Tumor Growth Inhibition” value ([18]; week 4) was 60%. For the same molecule, the “Tumor Volume” value ([18]; week 4) was 5.6 mm^3, the “Number of Animals with Tumor” value ([18]; week 4) was 4 and the Slope ([18]; week 5) was 1.34 mm^3 /week. For the same molecule, the “Tumor Growth Inhibition” value ([18]; week 5) was 61%, the “Tumor Volume” value ([18]; week 5) was 5.4 mm^3 and the “Number of Animals with Tumor” value ([18]; week 5) was 4. The Slope ([18]; week 6) was 1.60 mm^3 /week, the “Tumor Growth Inhibition” value ([18]; week 6) was 45% and the “Tumor Volume” value ([18]; week 6) was 10.6 mm^3. For the same molecule, the “Number of Animals with Tumor” value ([18]; week 6) was 5, the Slope ([18]; week 8.6) was 2.07 mm^3 /week and the “Tumor Growth Inhibition” value ([18]; week 8.6) was 21%. For the same molecule, the “Tumor Volume” value ([18]; week 8.6) was 18.8 mm^3, the “Number of Animals with Tumor” value ([18]; week 8.6) was 5 and the GI50 [1] was 0.1 µg/mL (≈ 0.326 µM). The GI50 [2] was 0.002 µg/mL (≈ 0.00653 µM).

Molecule `NCc1ccc(-c2ccc(-c3cccs3)s2)s1` [compound 652866] has a GI50 [1] of 0.01 µg/mL (≈ 0.036 µM) and a GI50 [2] of 0.001 µg/mL (≈ 0.0036 µM).

In the case of `NCc1ccc(-c2ccc(-c3ccc(CN)s3)s2)s1` [compound 658110], the GI50 [1] is reported as 10 µg/mL (≈ 32.6 µM) and the GI50 [2] is reported as 4 µg/mL (≈ 13.1 µM).

`OCc1ccc(-c2ccc(CO)s2)s1` [compound 647452] showed a GI50 [1] of 0.6 µg/mL (≈ 2.65 µM) and a GI50 [2] of 0.03 µg/mL (≈ 0.133 µM).

Work on `O=Cc1ccc(-c2ccc(-c3sccc3CO)s2)s1` [compound 658876] yielded a GI50 [1] of 0.4 µg/mL (≈ 1.31 µM) and a GI50 [2] of 0.02 µg/mL (≈ 0.0653 µM).

`O=Cc1ccc(-c2ccc(-c3ccsc3)s2)s1` [compound 660643] was tested, and the GI50 [1] was 2.4 µg/mL (≈ 8.68 µM) and the GI50 [2] was 0.005 µg/mL (≈ 0.0181 µM).

With `CC[N+](CC)(CC)Cc1ccc(-c2ccc(-c3cccs3)s2)s1` [compound 659561] the GI50 [1] was 5 µg/mL and the GI50 [2] was 2 µg/mL.

Molecule `OCc1ccc(-c2ccc(-c3cccs3)s2)s1` [compound 637388] has a GI50 [1] of 3 µg/mL (≈ 10.8 µM) and a GI50 [2] of 0.02 µg/mL (≈ 0.0718 µM).

In the case of `OCc1ccc(-c2ccc(-c3cccs3)s2)s1` [drawing 30], the GI50 [19] is reported as 29500 nM, the GI50 [4, 28] is reported as 224 nM and the GI50 [20] is reported as 18600 nM. It also gave a GI50 [5, 28] of 295 nM, a GI50 [21] of 31.6 nM and a GI50 [6, 28] of 105 nM. The GI50 [22] was 70800 nM, the GI50 [7, 28] was 117 nM and the GI50 ([8]; Homo sapiens, U-251, read-out: Log10 GI50 (converted)) was 148 nM. The GI50 [23] was 33900 nM, the GI50 [9, 28] was < 10 nM and the GI50 [24] was 36300 nM. For the same molecule, the GI50 [10, 28] was 27.5 nM, the GI50 [11, 28] was 28.2 nM and the GI50 [25] was 4470 nM. The GI50 [26] was 912 nM, the GI50 [12, 28] was 102 nM and the GI50 [13, 28] was < 10 nM. For the same molecule, the GI50 [14, 28] was 490 nM, the GI50 ([15]; Homo sapiens, KM-20L2, read-out: Log10 GI50 (converted)) was 245 nM and the GI50 ([16]; Homo sapiens, A498, read-out: Log10 GI50 (converted)) was < 10 nM. For the same molecule, the GI50 [27] was 22400 nM and the GI50 [17, 28] was 42.7 nM.

`NCc1ccc(-c2ccc(-c3ccc(CO)s3)s2)s1` [compound 656898] gave a GI50 [1] of 3 µg/mL (≈ 9.76 µM) and a GI50 [2] of 0.02 µg/mL (≈ 0.065 µM).

For `O=Cc1ccc(-c2ccc(CO)s2)s1` [compound 647073], the GI50 [1] was 0.08 µg/mL (≈ 0.357 µM) and the GI50 [2] was 0.05 µg/mL (≈ 0.223 µM).
